Source: DBAASP
Values after ≈ are worked out from the molar mass of the structure shown. Values joined by “and” are separate entries in the source; they are usually repeats but may differ in a detail not shown here. Equal values may be shown once. Values belong to the molecule of their own block, whether it stands above or below them.

Legend:
Assay in all cases: ≥ marks a high value that may be exact or a test limit, other limits are often not marked, values filed in µg/mL are converted to µM
[1] = test system: Erwinia amylovora PMV 6076
[2] = test system: Pseudomonas syringae pv. actinidiae Psa3700.1.1
[3] = test system: Pseudomonas syringae pv. syringae EPS 94
[4] = test system: Xanthomonas arboricola pv. pruni CFBP 5563
[5] = test system: Xanthomonas campestris pv. Vesicatoria 2133-2
[6] = test system: Xanthomonas fragariae Xf349-9A
[7] = test system: Bacillus subtilis ATCC 6633
[8] = test system: Enterococcus faecalis ATCC 12953
[9] = test system: Escherichia coli ATCC 8739
[10] = test system: Klebsiella pneumoniae ATCC 13885
[11] = test system: Proteus mirabilis ATCC 25933
[12] = test system: Pseudomonas aeruginosa ATCC 15442
[13] = test system: Salmonella enterica subsp. enterica serovar Typhimurium ATCC 14028
[14] = test system: Staphylococcus aureus ATCC 29213
[15] = test system: Streptococcus pyogenes ATCC 19615
[16] = test system: Bacillus megaterium KCTC 1096
[17] = test system: Bacillus subtilis KCTC 1918
[18] = test system: Escherichia coli KCTC 1682
Proteus vulgaris = test system: Proteus vulgaris
[19] = test system: Pseudomonas aeruginosa KCTC 1637
[20] = test system: Staphylococcus aureus KCTC 1621
[21] = test system: Bacillus subtilis ATCC 11060
Candida albicans = test system: Candida albicans
[22] = test system: Enterococcus faecalis ATCC 29212
Escherichia coli 078 = test system: Escherichia coli 078
[23] = test system: Escherichia coli CMCC 44102
[24] = test system: Escherichia coli CVCC 1515
Escherichia coli ER2566 = test system: Escherichia coli ER2566
Escherichia coli K88 = test system: Escherichia coli K88
Escherichia coli UB1005 = test system: Escherichia coli UB1005
Escherichia coli = test system: Escherichia coli
Listeria monocytogenes = test system: Listeria monocytogenes
[25] = test system: Neisseria gonorrhoeae F-62
[26] = test system: Neisseria gonorrhoeae FA-19
[27] = test system: Pseudomonas aeruginosa ATCC 10419
[28] = test system: Pseudomonas aeruginosa ATCC 21625
[29] = test system: Pseudomonas aeruginosa ATCC 21630
[30] = test system: Pseudomonas aeruginosa ATCC 27853
[31] = test system: Salmonella enterica subsp. enterica serovar Pullorum C79-13
[32] = test system: Salmonella enterica subsp. enterica serovar Typhimurium C77-31
[33] = test system: Staphylococcus aureus ATCC 25923
[34] = test system: Staphylococcus epidermidis ATCC 12228
[35] = test system: Candida albicans 08022710
[36] = test system: Candida albicans 08022821
[37] = test system: Candida albicans ATCC 2002
Candida albicans SC5314 = test system: Candida albicans SC5314
[38] = test system: Pseudomonas aeruginosa 08031014
Pseudomonas aeruginosa = test system: Pseudomonas aeruginosa
[39] = test system: Staphylococcus aureus 08A865
[40] = test system: Staphylococcus aureus 08A875
[41] = test system: Staphylococcus aureus ATCC 2592

Compound: CC[C@H](C)[C@H](NC(=O)[C@H](CCCCN)NC(=O)[C@H](CCCCN)NC(=O)[C@H](CC(C)C)NC(=O)[C@H](CC(=O)O)NC(=O)[C@@H](NC(=O)[C@@H](N)Cc1ccccc1)C(C)C)C(=O)N[C@@H](C)C(=O)N[C@@H](CC(N)=O)C(=O)N[C@H](C(=O)N[C@H](C(=O)N[C@@H](CC(N)=O)C(=O)N[C@@H](CO)C(=O)N[C@H](C(=O)N[C@@H](Cc1ccccc1)C(=O)NCC(=O)N[C@@H](CCCCN)C(N)=O)[C@@H](C)CC)[C@@H](C)CC)[C@@H](C)CC [FVDLKKIANIINSIFGK]
MIC [1]: ≥ 35.4 µM | MIC [2]: ≥ 50 µM | MIC [3]: ≥ 50 µM | MIC [4]: 2.84 µM (≈ 5.45 µg/mL) | MIC [5]: 4.38 µM (≈ 8.41 µg/mL) | MIC [6]: ≥ 50 µM

Compound: CC[C@H](C)[C@H](N)C(=O)N[C@@H](Cc1ccc(O)cc1)C(=O)N[C@@H](Cc1ccc(O)cc1)C(=O)N1CCC[C@H]1C(=O)N1CCC[C@H]1C(=O)N[C@@H](CC(N)=O)C(=O)N[C@@H](Cc1cnc[nH]1)C(=O)N[C@@H](CC(N)=O)C(=O)N[C@@H](Cc1ccccc1)C(=O)N1CCC[C@H]1C(N)=O [IYYPPNHNFP]
MIC [7]: ≥ 203 µM | MIC [8]: ≥ 101 µM | MIC [9]: ≥ 203 µM | MIC [10]: ≥ 101 µM | MIC [11]: ≥ 101 µM | MIC [12]: ≥ 203 µM | MIC [13]: 203 µM (≈ 256 µg/mL) | MIC [14]: 203 µM (≈ 256 µg/mL) | MIC [15]: ≥ 101 µM

Now from value to molecule:

MIC [16]: 3.12 µM (≈ 6.33 µg/mL) | MIC [17]: 1.1 µM (≈ 2.23 µg/mL) | MIC [18]: 8.84 µM (≈ 17.9 µg/mL) | MIC (Proteus vulgaris): 1.56 µM (≈ 3.16 µg/mL) | MIC [19]: 6.25 µM (≈ 12.7 µg/mL) | MIC [20]: 3.12 µM (≈ 6.33 µg/mL)
Compound: CC[C@H](C)[C@H](NC(=O)[C@H](CCCCN)NC(=O)[C@H](CCCCN)NC(=O)[C@H](Cc1ccccc1)NC(=O)[C@H](CC(C)C)NC(=O)[C@H](CCCCN)NC(=O)[C@H](Cc1c[nH]c2ccccc12)NC(=O)[C@@H](N)CCCCN)C(=O)N1CCC[C@H]1C(=O)N[C@@H](CC(C)C)C(=O)N[C@@H](Cc1cnc[nH]1)C(=O)N[C@@H](CC(C)C)C(=O)N[C@@H](C)C(=O)N[C@@H](CCCCN)C(=O)N[C@@H](CCCCN)C(=O)N[C@@H](Cc1ccccc1)C(N)=O [KWKLFKKIPLHLAKKF]

MIC [21]: 16.1 µM (≈ 33.1 µg/mL) | MIC (Candida albicans): 4.66 µM (≈ 9.58 µg/mL) | MIC [22]: 32.2 µM (≈ 66.2 µg/mL) | MIC (Escherichia coli 078): 16.1 µM (≈ 33.1 µg/mL) | MIC [23]: 1.02 µM (≈ 2.09 µg/mL) | MIC [24]: 1.99 µM (≈ 4.09 µg/mL) | MIC (Escherichia coli ER2566): 0.485 µM (≈ 0.998 µg/mL) | MIC (Escherichia coli K88): 4.03 µM (≈ 8.28 µg/mL) | MIC (Escherichia coli UB1005): 1.99 µM (≈ 4.09 µg/mL) | MIC (Escherichia coli): 1.12 µM (≈ 2.29 µg/mL) | MIC (Listeria monocytogenes): 1.36 µM (≈ 2.79 µg/mL) | MIC [25]: 0.679 µM (≈ 1.4 µg/mL) | MIC [26]: 0.873 µM (≈ 1.8 µg/mL) | MIC [27]: 4.03 µM (≈ 8.28 µg/mL) | MIC [28]: 8.05 µM (≈ 16.6 µg/mL) | MIC [29]: 8.05 µM (≈ 16.6 µg/mL) | MIC [30]: 4.03 µM (≈ 8.28 µg/mL) | MIC [31]: 1.99 µM (≈ 4.09 µg/mL) | MIC [13]: 1.99 µM (≈ 4.09 µg/mL) | MIC [32]: 4.03 µM (≈ 8.28 µg/mL) | MIC [33]: 8.05 µM (≈ 16.6 µg/mL) | MIC [14]: 4.03 µM (≈ 8.28 µg/mL) | MIC [34]: 32.2 µM (≈ 66.2 µg/mL)
Compound: CC(C)C[C@H](NC(=O)CNC(=O)CNC(=O)CNC(=O)[C@@H](N)CCCNC(=N)N)C(=O)N[C@H]1CSSC[C@@H](C(=O)N[C@H](C(=O)NCC(=O)N[C@@H](CCCNC(=N)N)C(N)=O)C(C)C)NC(=O)[C@H](C(C)C)NC(=O)[C@@H]2CSSC[C@H](NC(=O)[C@H](Cc3ccc(O)cc3)NC1=O)C(=O)N[C@@H](CCCNC(=N)N)C(=O)N[C@@H](CCCNC(=N)N)C(=O)N[C@@H](CCCNC(=N)N)C(=O)N[C@@H](Cc1ccccc1)C(=O)N2 [RGGGLCYCRRRFCVCVGR]

MIC [7]: 29.2 µM and 21.9 µM | MIC [35]: 5.47 µM (≈ 18.7 µg/mL) | MIC [36]: 2.74 µM (≈ 9.37 µg/mL) | MIC [37]: 1.37 µM and 0.686 µM | MIC (Candida albicans SC5314): ≥ 64 µM | MIC (Candida albicans): 1.37 µM (≈ 4.69 µg/mL) | MIC (Escherichia coli): 1.94 µM (≈ 6.63 µg/mL) | MIC [38]: 10.9 µM (≈ 37.5 µg/mL) | MIC [30]: 5.47 µM and > 2.74 µM | MIC (Pseudomonas aeruginosa): 2.74 µM (≈ 9.37 µg/mL) | MIC [39]: 2.74 µM (≈ 9.37 µg/mL) | MIC [40]: 5.47 µM (≈ 18.7 µg/mL) | MIC [41]: 2.74 µM and 1.37 µM | MIC [14]: > 64 µM
Compound: CC[C@H](C)[C@H](NC(=O)[C@H](Cc1cnc[nH]1)NC(=O)[C@H](CO)NC(=O)[C@@H](NC(=O)[C@@H](NC(=O)[C@@H](NC(=O)[C@@H](NC(=O)[C@H](CCCNC(=N)N)NC(=O)[C@H](CC(C)C)NC(=O)[C@H](CCCCN)NC(=O)[C@H](CCC(=O)O)NC(=O)[C@H](CCCCN)NC(=O)[C@H](CC(C)C)NC(=O)[C@H](CCCCN)NC(=O)[C@@H]1CSSC[C@H](NC(=O)[C@H](CCCCN)NC(=O)[C@@H](N)CCCNC(=N)N)C(=O)N[C@@H](CC(N)=O)C(=O)N[C@@H](Cc2ccccc2)C(=O)N[C@@H](CC(C)C)C(=O)N1)[C@@H](C)O)C(C)C)[C@@H](C)CC)[C@@H](C)O)C(=O)N[C@@H](CC(=O)O)C(=O)N[C@@H](CCCCN)C(=O)N[C@H](C(=O)N[C@@H](CC(C)C)C(=O)N[C@@H](CCCNC(=N)N)C(=O)N1CCC[C@H]1C(=O)N[C@@H](CCC(N)=O)C(=O)NCC(=O)O)C(C)C [RKCNFLCKLKEKLRTVITSHIDKVLRPQG]
